The test deals with CD2F1 mice, L1210 leukemia ip, survival T/C. The experiment in a line: NCI In Vivo Anticancer Drug Screen. Data for tumor model L1210 Leukemia (intraperitoneal) in CD2F1 (CDF1) mice. The following applies: higher = longer survival. The essentials:
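Transplantable tumor in mice; compound-treated vs vehicle-treated groups. Read-out = treated/control ratio of the measured endpoint.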

The mark [1] stands for this setting: endpoint: mean survival time, dose: 100.0 mg/kg/injection, schedule: Q04DX003 (ip), vehicle: saline with Tween-80.
The mark [2] stands for this setting: endpoint: mean survival time, dose: 200.0 mg/kg/injection, schedule: Q04DX003 (ip), vehicle: saline with Tween-80.
[3] abbreviates: endpoint: mean survival time, dose: 400.0 mg/kg/injection, schedule: Q04DX003 (ip), vehicle: saline with Tween-80.
The mark [4] stands for this setting: endpoint: mean survival time, dose: 100.0 mg/kg/injection, schedule: Q01DX001 (ip), vehicle: saline.
The mark [5] stands for this setting: endpoint: mean survival time, dose: 200.0 mg/kg/injection, schedule: Q01DX001 (ip), vehicle: saline.

SMILES strings stand for the structures. “And” between values parts separate entries of the source, which are not always exact repeats. Equal values may be shown once. Inconclusive results and toxic doses are left out.

For `O=C(O)c1ccccc1/C=C/c1ccc([N+](=O)[O-])cc1`, the T/C runs as follows: (endpoint: mean survival time, dose: 25.0 mg/kg/injection, schedule: Q01DX009 (ip), vehicle: saline with Tween-80) 98 % of control; (endpoint: mean survival time, dose: 50.0 mg/kg/injection, schedule: Q01DX009 (ip), vehicle: saline with Tween-80) 95 % of control; (endpoint: mean survival time, dose: 100.0 mg/kg/injection, schedule: Q01DX009 (ip), vehicle: saline with Tween-80) 104 % of control.
Consider `C=CS(=O)(=O)c1ccccc1`, for which the T/C (endpoint: mean survival time, dose: 18.0 mg/kg/injection, schedule: Q01DX009 (ip), vehicle: saline with Tween-80) is 96 % of control; the T/C (endpoint: mean survival time, dose: 36.0 mg/kg/injection, schedule: Q01DX009 (ip), vehicle: saline with Tween-80) was 93 % of control; the T/C (endpoint: mean survival time, dose: 72.0 mg/kg/injection, schedule: Q01DX009 (ip), vehicle: saline with Tween-80) is 112 % of control.
With `OC1C2CCN(CC2)C1CN1CC=C(c2ccccc2)CC1` (stereo not given), the T/C (endpoint: mean survival time, dose: 100.0 mg/kg/injection, schedule: Q04DX003 (ip), vehicle: saline) is 100 % of control.
With `CCCCCCCCCCCCCCCCOc1ccccc1NC(=O)CC(C)=O`, the T/C is 96 % of control under setting [1], 94 % of control under setting [2] and 95 % of control under setting [3].
Take `Cc1cc(=O)n2c3c(c4c(cc13)c(CN(C)C)cc(=O)n4C)OC2`: the T/C was 110 % of control (endpoint: median survival time, dose: 6.0 mg/kg/injection, schedule: Q01DX009 (ip), vehicle: saline with Tween-80); 101 % of control (endpoint: median survival time, dose: 12.0 mg/kg/injection, schedule: Q01DX009 (ip), vehicle: saline with Tween-80); 100 % of control (endpoint: median survival time, dose: 12.5 mg/kg/injection, schedule: Q01DX009 (ip), vehicle: saline with Tween-80); 119 % of control and 110 % of control (endpoint: median survival time, dose: 25.0 mg/kg/injection, schedule: Q01DX009 (ip), vehicle: saline with Tween-80); 97 % of control (endpoint: median survival time, dose: 100.0 mg/kg/injection, schedule: Q01DX009 (ip), vehicle: saline with Tween-80).
Consider `O=C(Nc1ccccc1)Nc1cc(Cl)ccc1O`, for which the T/C (endpoint: mean survival time, dose: 100.0 mg/kg/injection, schedule: Q01DX001 (ip), vehicle: saline with Tween-80) was 98 % of control; the T/C (endpoint: mean survival time, dose: 200.0 mg/kg/injection, schedule: Q01DX001 (ip), vehicle: saline with Tween-80) was 98 % of control; the T/C (endpoint: mean survival time, dose: 400.0 mg/kg/injection, schedule: Q01DX001 (ip), vehicle: saline with Tween-80) is 91 % of control.
As to `CC(C)CCNC(=O)CI`, the T/C is 101 % of control under setting [4] and 95 % of control under setting [5].
Take `C/C=C/CC1(Cc2ccccc2)C(=O)NC(=S)NC1=O`: the T/C (endpoint: mean survival time, dose: 9.5 mg/kg/injection, schedule: Q01DX001 (ip), vehicle: other) was 108 % of control and the T/C (endpoint: mean survival time, dose: 19.0 mg/kg/injection, schedule: Q01DX001 (ip), vehicle: other) is 111 % of control.
With `CN(C)/C(=C\C(=O)c1ccccc1)c1ccccc1`, the T/C (endpoint: mean survival time, dose: 25.0 mg/kg/injection, schedule: Q04DX003 (ip), vehicle: saline with Tween-80) was 104 % of control; the T/C (endpoint: mean survival time, dose: 50.0 mg/kg/injection, schedule: Q04DX003 (ip), vehicle: saline with Tween-80) was 108 % of control; the T/C under setting [1] is 93 % of control.
With `CSc1ncnc2c1ncn2C1OC(CO)C(O)C1O` (stereo not given), the T/C (endpoint: mean survival time, dose: 4.0 mg/kg/injection, schedule: Q01DX009 (ip), vehicle: saline) was 118 % of control; the T/C (endpoint: mean survival time, dose: 5.0 mg/kg/injection, schedule: Q01DX005 (ip), vehicle: saline) is 118 % of control and 124 % of control; the T/C (endpoint: mean survival time, dose: 5.0 mg/kg/injection, schedule: Q01DX007 (ip), vehicle: saline) is 110 % of control; the T/C (endpoint: mean survival time, dose: 5.0 mg/kg/injection, schedule: Q01DX009 (ip), vehicle: saline) was 114 % of control; the T/C (endpoint: mean survival time, dose: 5.0 mg/kg/injection, schedule: Q03DX003 (ip), vehicle: saline) is 115 % of control; the T/C (endpoint: mean survival time, dose: 5.0 mg/kg/injection, schedule: Q04DX003 (ip), vehicle: saline) was 103 % of control. The T/C was 116 % of control (endpoint: mean survival time, dose: 10.0 mg/kg/injection, schedule: Q01DX007 (ip), vehicle: saline); 121 % of control (endpoint: mean survival time, dose: 10.0 mg/kg/injection, schedule: Q01DX009 (ip), vehicle: saline); 122 % of control (endpoint: mean survival time, dose: 10.0 mg/kg/injection, schedule: Q03DX003 (ip), vehicle: saline); 112 % of control (endpoint: mean survival time, dose: 10.0 mg/kg/injection, schedule: Q04DX003 (ip), vehicle: saline); 150 % of control (endpoint: mean survival time, dose: 12.5 mg/kg/injection, schedule: Q01DX009 (ip), vehicle: saline); 154 % of control (endpoint: mean survival time, dose: 20.0 mg/kg/injection, schedule: Q01DX005 (ip), vehicle: saline). For the same molecule, the T/C runs as follows: (endpoint: mean survival time, dose: 20.0 mg/kg/injection, schedule: Q04DX003 (ip), vehicle: saline) 114 % of control; (endpoint: mean survival time, dose: 25.0 mg/kg/injection, schedule: Q01DX001 (ip), vehicle: saline) 118 % of control; (endpoint: mean survival time, dose: 32.0 mg/kg/injection, schedule: Q01DX009 (ip), vehicle: saline) 115 % of control; (endpoint: mean survival time, dose: 40.0 mg/kg/injection, schedule: Q01DX005 (ip), vehicle: saline) 164 % of control and 166 % of control; (endpoint: mean survival time, dose: 64.0 mg/kg/injection, schedule: Q01DX009 (ip), vehicle: saline) 80 % of control; (endpoint: mean survival time, dose: 80.0 mg/kg/injection, schedule: Q01DX005 (ip), vehicle: saline) 119 % of control. For the same molecule, the T/C was 155 % of control (endpoint: median survival time, dose: 18.0 mg/kg/injection, schedule: Q01DX009 (ip), vehicle: saline); 170 % of control and 191 % of control (endpoint: median survival time, dose: 27.0 mg/kg/injection, schedule: Q01DX009 (ip), vehicle: saline); 158 % of control and 161 % of control (endpoint: median survival time, dose: 30.0 mg/kg/injection, schedule: Q01DX009 (ip), vehicle: saline); 183 % of control (endpoint: median survival time, dose: 35.0 mg/kg/injection, schedule: Q01DX009 (ip), vehicle: saline); 119 % of control and 108 % of control (endpoint: median survival time, dose: 45.0 mg/kg/injection, schedule: Q01DX009 (ip), vehicle: saline); 157 % of control (endpoint: median survival time, dose: 123.0 mg/kg/injection, schedule: Q01DX001 (ip), vehicle: saline). Besides, the T/C was 160 % of control (endpoint: median survival time, dose: 185.0 mg/kg/injection, schedule: Q01DX001 (ip), vehicle: saline with Tween-80) and 151 % of control (endpoint: median survival time, dose: 185.0 mg/kg/injection, schedule: Q01DX001 (ip), vehicle: saline).
For `CN(C)S(=O)(=O)C#Cc1ccccc1`, the T/C reads like this: under setting [1], 104 % of control; under setting [2], 97 % of control; under setting [3], 102 % of control.
Turning to `C=CCOC(=O)CCN1CC1`, the T/C is, setting by setting: (endpoint: mean survival time, dose: 0.5 mg/kg/injection, schedule: Q01DX009 (ip), vehicle: saline with Tween-80) 106 % of control; (endpoint: mean survival time, dose: 1.0 mg/kg/injection, schedule: Q01DX009 (ip), vehicle: saline with Tween-80) 103 % of control; (endpoint: mean survival time, dose: 2.0 mg/kg/injection, schedule: Q01DX009 (ip), vehicle: saline with Tween-80) 103 % of control.
As to `C=C[Si](C=C)(C=C)C=C`, the T/C was 101 % of control under setting [4]; 104 % of control under setting [5]; 107 % of control (endpoint: mean survival time, dose: 400.0 mg/kg/injection, schedule: Q01DX001 (ip), vehicle: saline).
`C#CCOCCCC(=O)O`: the T/C runs as follows: (endpoint: mean survival time, dose: 100.0 mg/kg/injection, schedule: Q04DX003 (ip), vehicle: acetone) 101 % of control; (endpoint: mean survival time, dose: 200.0 mg/kg/injection, schedule: Q04DX003 (ip), vehicle: acetone) 101 % of control; (endpoint: mean survival time, dose: 400.0 mg/kg/injection, schedule: Q04DX003 (ip), vehicle: acetone) 95 % of control.
On to `CC(C)(C)C1OCCCO1`, for which the T/C runs as follows: (endpoint: mean survival time, dose: 100.0 mg/kg/injection, schedule: Q04DX002 (ip), vehicle: saline) 104 % of control; (endpoint: mean survival time, dose: 200.0 mg/kg/injection, schedule: Q04DX002 (ip), vehicle: saline) 110 % of control; (endpoint: mean survival time, dose: 400.0 mg/kg/injection, schedule: Q04DX002 (ip), vehicle: saline) 104 % of control.
In the case of `Cc1ccc(C)c(C(=O)O)c1N`, the T/C runs as follows: under setting [1], 95 % of control; under setting [2], 95 % of control; under setting [3], 100 % of control.
Turning to `CCOC(=O)NC(C)(C)CN(C(=O)OCC)C(C)C`, the T/C is 102 % of control (endpoint: mean survival time, dose: 100.0 mg/kg/injection, schedule: Q01DX009 (ip), vehicle: other) and 104 % of control (endpoint: mean survival time, dose: 200.0 mg/kg/injection, schedule: Q01DX009 (ip), vehicle: other).
Turning to `O=C1c2ccccc2C(=O)c2c(NCCN3CCNCC3)ccc(NCCN3CCNCC3)c21`, the T/C is 100 % of control (endpoint: mean survival time, dose: 4.0 mg/kg/injection, schedule: Q01DX009 (ip), vehicle: acid diluted with saline); 102 % of control (endpoint: mean survival time, dose: 8.0 mg/kg/injection, schedule: Q01DX009 (ip), vehicle: acid diluted with saline); 106 % of control (endpoint: mean survival time, dose: 16.0 mg/kg/injection, schedule: Q01DX009 (ip), vehicle: acid diluted with saline); 104 % of control (endpoint: mean survival time, dose: 32.0 mg/kg/injection, schedule: Q01DX009 (ip), vehicle: acid diluted with saline).

These data come from PubChem BioAssay AID256 (DTP/NCI, 2004).
